Here are results for one compound from PMC5724825, “Structure-activity studies of Mdm2/Mdm4-binding stapled peptides comprising non-natural amino acids” (PLoS ONE, 2017).

Substitutions are numbered along the chain they refer to.

Test [1] deals with T1, Mdm4-L98V (amino acids 1–108) (Homo sapiens, UniProt O15151, L98V).
T1 construct: Mdm4 and Mdm4-L98V (amino acids 1–108) were cloned with C-terminal 6xHIS tags; made in house; host or cells: Escherichia coli BL21(DE3)
T1 sequence (O15151 1-108 L98V): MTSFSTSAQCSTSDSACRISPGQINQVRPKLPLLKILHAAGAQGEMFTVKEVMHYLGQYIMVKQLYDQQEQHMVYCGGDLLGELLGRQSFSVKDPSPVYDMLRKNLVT
The test can be described thus: Competitive fluorescence anisotropy, Mdm4-L98V. Format: binding. The note with it: from Table 2. How it is done:
(§1) Mdm4 and Mdm4-L98V (amino acids 1–108) were cloned with C-terminal 6xHIS tags. The constructs were then transformed into Escherichia coli BL21(DE3) (Invitrogen) competent cells. Cells were grown in LB medium at 37°C and induced at OD600 nm of 0.6 at 25°C with 0.25 mM IPTG and at 16°C with 1 mM IPTG for Mdm4-WT and Mdm4-L98V respectively. After overnight induction, the cells were harvested by centrifugation, resuspended in His-binding buffer (50 mM Bis-Tris pH 6.5, 1M NaCl, 20 mM imidazole, 0.5 mM DTT), and lysed by sonication. After centrifugation for 60 mins at 19,000 × g at 4°C, the cell lysate was then applied to a 1 mL HisTrap FF column (GE Healthcare) pre-equilibrated in His-binding buffer, washed and eluted off the column with His-elution buffer (50 mM Bis-Tris pH 6.5, 1M NaCl, 500 mM imidazole, 0.5 mM DTT) with a gradient elution of 35% elution buffer in 5 column volumes, followed by 35% to 100% elution buffer over 80 column volumes. Protein purity as assessed by SDS-PAGE was ~ 90%, and the fractions were pooled and buffer exchanged into 50 mM Bis-Tris pH 6.5, 350 mM NaCl, 1 mM DTT. The proteins were then concentrated using Amicon-Ultra (3 kDa MWCO) concentrator (Millipore).
(§2) Fluorescence anisotropy assays were performed as previously described. Titrations of purified Mdm2/Mdm4 proteins were incubated with 50 nM of carboxyfluorescein (FAM) labelled 12–1 peptide (FAM-[…]-NH2) to initially determine the dissociation constants for the peptide-protein interactions. Apparent Kds of peptides were next determined by competitive fluorescence anisotropy. Titrations of peptides were carried out at constant concentrations of Mdm2/Mdm2-M62A/Mdm4 (150 nM), Mdm4-L98V (250 nM) and labelled peptide (50 nM). Anisotropy measurements were carried out using the Envision Multilabel Reader (PerkinElmer). All experiments were carried out in PBS (2.7 mM KCl, 137 mM NaCl, 10 mM Na2HPO4 and 2 mM KH2PO4, pH 7.4), 4% DMSO and 0.1% Tween-20 buffer. All titrations were carried out in duplicate (3–6 repeats). Curve fitting was carried out using Prism (GraphPad).

For test [2], the target named is T2, Mdm2 (amino acids 6–125) (Homo sapiens, UniProt Q00987). As to the kind of experiment: Competitive fluorescence anisotropy, Mdm2. It counts as binding. Set-up: Mdm2 (amino acids 6–125) was cloned as a GST-fusion protein; GST (N, cleaved yes); made in house; host or cells: Escherichia coli BL21(DE3) pLysS. The conditions noted are these: from Table 2.
In test [3] the target is T2, Mdm2 (amino acids 6–125). Also on record: Mdm2 (amino acids 6–125) was cloned as a GST-fusion protein; GST (N, cleaved yes); made in house; host or cells: Escherichia coli BL21(DE3) pLysS. The note with it: earlier series; cited from earlier work. An excerpt:
In common with all reported high-affinity binders, these peptides incorporate a signature p53-derived interacting motif comprising F, W and L residues that respectively dock into discrete hydrophobic pockets in the N-terminal domain of Mdm2 [13]. […] The ...

For test [4], the target named is T3, Mdm4 (amino acids 1–108) (Homo sapiens, UniProt O15151).
T3 construct: Mdm4 and Mdm4-L98V (amino acids 1–108) were cloned with C-terminal 6xHIS tags; made in house; host or cells: Escherichia coli BL21(DE3)
T3 sequence (O15151 1-108): T1 sequence (O15151 1-108 L98V) with V98L
The test can be described thus: Competitive fluorescence anisotropy, Mdm4. It counts as binding. The conditions noted are these: from Table 2. The procedure:
as §1, §2

Test [5] concerns p53 transactivation in T22 cells. The test can be described thus: p53 reporter assay in T22 cells (β galactosidase). It counts as cell-based. The note with it: 5, 10, 20 μM peptide, 18 hours, DMEM with 10% FBS. How it is done:
Dulbecco’s Minimal Eagle Medium (DMEM) with 10% fetal bovine serum (FBS) and penicillin/streptomycin was used to maintain cells. T22 cells stably transfected with a p53 responsive β galactosidase reporter, were seeded into 96-well plates (8000 cells per well). 24 hours later, cells were treated with compounds/peptide for 18 hours in DMEM with 10% FBS. β galactosidase activity was measured using the FluoReporter LacZ/Galactosidase Quantitation kit (Invitrogen). Measurements were carried out on a Safire II multiplate reader (TECAN). All experiments were carried out in duplicate.
Fig 4 T22 reporter assay measuring p53 transactivation. A. Cells were treated with increasing concentrations (5, 10, 20 μM) of indicated peptide ligands and p53 activity determined by measuring β galactosidase levels. The small molecule Mdm2 inhibitor Nutlin (10 μM) was used as positive control. Activity is expressed as fold increase over cells treated with DMSO vehicle only. Values represent average ± SD (n = 2). * p < 0.001 compared to DMSO control. B. Lactate dehydrogenase release assay indicating no significant membrane disruption observed for increasing concentrations (2, 10, 20 μM) of indicated ligands compared to vehicle (DMSO) and positive maximum lysis control (MLC). Values represent average ± SD (n = 3).

Test [6] deals with activation of the p53 tumour suppressor. The note with it: earlier series; cited from earlier work. An excerpt:
We have previously described a series of peptide antagonists targeting Mdm2, a key regulator of p53 function. In common with all reported high-affinity binders, these peptides incorporate a signature p53-derived interacting motif comprising F, W and L residues that respectively dock into discrete hydrophobic pockets in the N-terminal domain of Mdm2 [13]. This series exemplified significant enhancements in binding affinity, cellular uptake and activity arising from incorporation of a hydrocarbon tether and replacement of the tryptophan with the non-natural L-6-chlorotryptophan. The ...

`CC(=O)N[C@H](C(=O)N[C@@H](CO)C(=O)N[C@@H](Cc1ccccc1)C(=O)N[C@]1(C)CCCCCCC=CCCC[C@@](C)(C(N)=O)NC(=O)[C@H](CC(C)C)NC(=O)[C@H](CC(C)C)NC(=O)[C@H](C)NC(=O)[C@H](Cc2c[nH]c3cc(Cl)ccc23)NC(=O)[C@H](Cc2ccc(O)cc2)NC(=O)[C@H](CCC(=O)O)NC1=O)[C@@H](C)O` [M011]: the “Increase in binding affinity to Mdm4-L98V over binding to Mdm4” value in test [1] is reported as ~ 4.6 fold. In addition, in test [2], the “Increased Mdm2 binding affinity over parental stapled peptide lacking the 6-chloro modification (PM2)” value was ~ 8 fold. In test [3], the “Increase in Mdm2 binding affinity over the parental peptide” value is given as ~ 7 fold. Moreover, in test [4], the “Binding to Mdm2 over Mdm4 (affinity for Mdm4 reduced compared to Mdm2)” value is ~ 50 fold and the “Reduced binding to Mdm4 compared to PM2” value was ~ 3 fold. In addition, the “More active than M012 in T22 p53 reporter assay” value in test [5] was ~ 20%. For the same compound, the “Enhanced cellular activity over the parental peptide” value in test [6] is listed as ~ 59 fold.
